Experimental data taken from patent US20030036564A1, “Control of lyme disease spirochete” (priority 2001, published 2003).

Test system: Borrelia burgdorferi strain B31
Experiment: Antibiotic bait diet fed no-choice for seven days to mice infected with Lyme disease spirochete; ear punch biopsy culture and dark field microscopy
Assay type: in vivo, laboratory mice (Swiss-Webster)
Conditions: ear punch biopsy culture, dark field microscopy
Method: The diet compositions described in Examples 1-3 were fed separately on a no-choice basis to separate groups of laboratory mice (Swiss-Webster) infected with the Lyme disease spirochete Borrelia burgdorferi. […]. The mice had all been previously infected with B. burgdorferi strain B31 by subcutaneous injection followed by a minimum 21-day incubation period. To confirm that the mice were positive for the spirochete, a modified ear punch biopsy was performed (Sinsky and Piesman, 1989, J. of Clin. Micro. 27:1723-1727, CDC 1997) on each mouse and the biopsy incubated in a modified BSK-H media for 7 days and viewed under dark field microscopy. The prepared diets were fed to individually housed mice on a no-choice basis and water was offered ad libitum. Consumption was recorded each day and additional feed was added. Diet was presented to the mice for seven consecutive days. On the day following the last day feed was offered, mice were anesthetized with Halothane and ear punch biopsy was performed. The biopsies were incubated in modified BSK-H media for seven days at 34±1° C. Dark field microscopy was then performed on an American Optics 1031 microscope with an American Optics dark field 1096 condenser to determine the presence of spirochetes. Cultures were considered positive if spirochete growth occurred within five weeks of inoculation (Wilske and Preac-Mursic, Aspects of Lyme Borreliosis, Springer-Verlag, New York 1993), viewing the cultures at seven-day increments. A slide was considered negative if no spirochetes were found after searching 100 fields at 400× (Ginsberg and Ewing, J. of Med. Entomology, 26: 183-189, 1989).

[1] = Treatment level 1, chloramphenicol 500 μg/g bait
[2] = Treatment level 2, chloramphenicol 1000 μg/g bait
[3] = Treatment level 3, thiamphenicol 1000 μg/g bait

Row | Structure (SMILES) | NUMBER OF MICE TESTING NEGATIVE FOR SPIROCHETE [1] | PERCENTAGE OF MICE TESTING NEGATIVE FOR SPIROCHETE [1] | NUMBER OF MICE TESTING NEGATIVE FOR SPIROCHETE [2] | PERCENTAGE OF MICE TESTING NEGATIVE FOR SPIROCHETE [2] | NUMBER OF MICE TESTING NEGATIVE FOR SPIROCHETE [3] | PERCENTAGE OF MICE TESTING NEGATIVE FOR SPIROCHETE [3]
1 | O=C(N[C@H](CO)[C@H](O)c1ccc([N+](=O)[O-])cc1)C(Cl)Cl [CHLORAMPHENICOL, chloramphenicol] | 10/10 | (100%) | 10/10 | (100%) |  | 
2 | CS(=O)(=O)c1ccc([C@@H](O)[C@@H](CO)NC(=O)C(Cl)Cl)cc1 [THIAMPHENICOL, thiamphenicol] |  |  |  |  | 10/10 | (100%)
